Experiment [1] has as its system Kunming mice. The experiment can be described thus: Mice writhing model (acetic acid). The note with it: i.p. 20 mg/Kg, acetic acid 0.7% i.p. after 30 minutes, writhes in 5 minutes; for inhibition in vivo at 20 mg/kg: Mus musculus, ip, read-out: Analgesia (inhibition ratio of writhing). The format is in vivo. The protocol: Kunming mice were used, with a male-female ratio of 50-50%. The test compound is administered i.p. (20 mg/Kg body weight) to the test groups, and physiological saline is administered P.O. (20 ml/Kg body weight) to the control group. After 30 minutes, acetic acid (0.7%, […] i.p.) was injected and the number of writhes was observed during a 5-minute period after acetic acid administration. The inhibition ratio of the writhing threshold was calculated. The alternating current tube is used to record the spontaneous activities for measuring sedation.
Two species of animals (mice and rats) and four types of pain testing models (i.p. 0.7% acetic acid, s.c. 5% formalin, hot plate 55° C., focused radiant heat) were used.

Experiment [2] has as its system Kunming mice. Briefly: Sedation: spontaneous activities recorded with alternating current tube. The class given is in vivo. Conditions: i.p. 20 mg/Kg, spontaneous activities; for inhibition in vivo at 20 mg/kg: Mus musculus, ip. The protocol: Kunming mice were used, with a male-female ratio of 50-50%. […] After 30 minutes, acetic acid (0.7%, […] i.p.) was injected and the number of writhes was observed during a 5-minute period after acetic acid administration. The inhibition ratio of the writhing threshold was calculated. The alternating current tube is used to record the spontaneous activities for measuring sedation.

Structures are written as SMILES.

Regarding `O=C(CN1CCN(Cc2ccccc2)CC1)c1ccccc1` [IV-1, N^1-benzyl-N^4-phenacyl piperazine], the figures for the inhibition in vivo at 20 mg/kg in the experiment with Kunming mice [1] and with Kunming mice [2] were 68.2% and 65.6%, respectively.
On the same counts, the results for `O=C(CN1CCN(Cc2ccc(Cl)cc2)CC1)c1ccccc1` [IV-3, N^1-(4-chlorobenzyl)-N^4-phenacyl piperazine] are 56.6% and 70.8%.
For `O=C(CN1CCN(Cc2ccc([N+](=O)[O-])cc2)CC1)c1ccccc1` [IV-4, N^1-(4-nitrobenzyl)-N^4-phenacyl piperazine] the same measures were 93.2% and 39.6%.
For `CCOC(=O)C(c1ccccc1)N1CCN(CC(=O)c2ccccc2)CC1` (stereo not shown) [IV-5, N^1-[(1-ethoxy-oxo-methyl)benzyl]-N^4-phenacyl piperazine], the “Analgesia (inhibition ratio of writhing)” value in the experiment with Kunming mice [1] was determined as 14%. This molecule also registered a Sedation with Kunming mice [2] of 44%.
For the molecule `O=C(CN1CCN(Cc2ccccc2)CC1)c1ccc(Cl)cc1` [IV-6, N^1-benzyl-N^4-(4-chlorophenacyl)piperazine], the figures for the inhibition in vivo at 20 mg/kg in the experiment with Kunming mice [1] and with Kunming mice [2] were 43% and 73%, respectively.
For `O=C(CN1CCN(Cc2ccccc2)CC1)c1ccc2ccccc2c1` [IV-7, N^1-benzyl-N^4-(2-naphthoylmethyl)piperazine] the same measures were 25% and 43%.
On the same counts, the results for `COc1ccc(C(=O)CN2CCN(Cc3ccccc3)CC2)cc1` [IV-8, N^1-benzyl-N^4-(4-methoxyphenacyl)piperazine] are 39% and 64%.
For `O=C(CN1CCN(Cc2ccccc2)CC1)c1ccc([N+](=O)[O-])cc1` [IV-9, N^1-benzyl-N^4-(4-nitrophenacyl)piperazine] the same measures were 74% and 32%.
As for `O=C(CN1CCN(Cc2cccnc2)CC1)c1ccccc1` [IV-11, N^1-(3-pyridylmethyl)-N^4-phenacyl piperazine], the inhibition in vivo at 20 mg/kg was 86% in the experiment on Kunming mice [1] and 91% in the experiment on Kunming mice [2].
For `CC(C(=O)c1ccccc1)N1CCN(Cc2ccc(N)cc2)CC1` (stereo not shown) [IV-13, N^1-(4-aminobenzyl)-N^4-(1-benzoylethyl)piperazine] the same measures were 100% and 86%.
For `COc1ccc(OC)c(CN2CCN(CC(=O)c3ccccc3)CC2)c1` [IV-15, N^1-(2,5-dimethoxybenzyl)-N^4-phenacyl piperazine] the same measures were 80% and 93%.
For `Nc1ccc(C(=O)CN2CCN(Cc3ccccc3)CC2)cc1` [IV-16, N^1-benzyl-N^4-(4-aminophenacyl)piperazine] the same measures were 63% and 51%.
As for `O=C(CCN1CCN(Cc2ccccc2)CC1)c1ccccc1` [IV-17, N^1-benzyl-N^4-(2-benzoylethyl)piperazine], the inhibition in vivo at 20 mg/kg in the experiment on Kunming mice [1] worked out at 45%; in the experiment on Kunming mice [2], 75%.
For `CC(=O)Nc1ccc(C(=O)CN2CCN(Cc3ccc([N+](=O)[O-])cc3)CC2)cc1` [IV-18, N^1-(4-nitrobenzyl)-N^4-[(4-acetamido)phenacyl]piperazine] the same measures were 64% and 65%.
On the same counts, the results for `O=C(CN1CCN(Cc2ccc(F)cc2)CC1)c1ccc(Cl)cc1` [IV-20, N^1-(4-fluorobenzyl)-N^4-(4-chlorophenacyl)piperazine] are 45% and 60%.
As for `COc1ccc(C(=O)CN2CCN(CCC(O)c3ccccc3)CC2)cc1` (stereo not shown) [IV-22, N^1-(3-phenylpropyl-3-ol)-N^4-(4-methoxyphenacyl)piperazine], the “Analgesia (inhibition ratio of writhing)” value in the experiment on Kunming mice [1] was found to be 100%. The molecule further gave a Sedation with Kunming mice [2] of 84%.
Regarding `COc1ccc([N+](=O)[O-])cc1CN1CCN(CC(=O)c2ccccc2)CC1` [IV-23, N^1-(2-methoxy-5-nitrobenzyl)-N^4-phenacyl piperazine], the inhibition in vivo at 20 mg/kg with Kunming mice [1] was 87%; in the experiment on Kunming mice [2], 96%.
With `CC(c1ccc(F)cc1)N1CCN(CC(=O)c2ccccc2)CC1` (stereo not shown) [IV-24, N^1-[1-(4-fluorophenyl)ethyl]-N^4-phenacyl piperazine], the inhibition in vivo at 20 mg/kg in the experiment on Kunming mice [1] was determined as 64%; in the experiment on Kunming mice [2] it was 47%.
On the same counts, the results for `COc1ccc(CN2CCN(C(C)C(=O)c3ccc4c(Cl)c(OC)ccc4c3)CC2)cc1` (stereo not shown) [IV-31, N^1-(4-methoxybenzyl)-N^4-[1-(5-chloro-6-methoxy-2-naphthoyl)ethyl]piperazine] are 45% and 7%.
On the same counts, the results for `C[C@H](c1ccccc1)N1CCN(CC(=O)c2ccccc2)CC1` [IV-38, N^1—(R-1-phenylethyl)-N^4-phenacyl piperazine] are 51% and 99%.
As for `C[C@@H](c1ccccc1)N1CCN(CC(=O)c2ccccc2)CC1` [IV-39, N^1-(S-1-phenylethyl)-N^4-phenacyl piperazine], the “Analgesia (inhibition ratio of writhing)” value in the experiment with Kunming mice [1] worked out at 42%. For the same molecule, in the experiment with Kunming mice [2], the Sedation worked out at 35%.
Turning to `Cc1ccc(C(=O)CN2CCN([C@H](C)c3ccccc3)CC2)cc1` [IV-41, N^1—(R-1-phenylethyl)-N^4-(4-methylphenacyl)piperazine], the inhibition in vivo at 20 mg/kg in the experiment with Kunming mice [1] stood at 60%; in the experiment on Kunming mice [2] it was 72%.
As for `Cc1ccc(C(=O)CN2CCN([C@@H](C)c3ccccc3)CC2)cc1` [IV-42, N^1-(S-1-phenylethyl)-N^4-(4-methylphenacyl)piperazine], the “Analgesia (inhibition ratio of writhing)” value in the experiment with Kunming mice [1] came out at 44%. In the experiment with Kunming mice [2], the Sedation came to 0%.
`COc1ccc2cc(C(=O)C(C)N3CCN(C(C)c4ccccc4)CC3)ccc2c1Cl` (stereo not shown) [IV-43, N^1-(1-phenylethyl)-N^4-[1-(5-chloro-6-methoxy-2-naphthoyl)ethyl]piperazine]: the inhibition in vivo at 20 mg/kg with Kunming mice [1] was 42%; in the experiment on Kunming mice [2] it was 4%.
For `CC(C(=O)c1ccccc1)N1CCN(Cc2ccc([N+](=O)[O-])cc2)CC1` (stereo not shown) [IV-47, N^1-(4-nitrobenzyl)-N^4-(1-benzoylethyl)piperazine] the same measures were 28.8% and 26.4%.
On the same counts, the results for `CC(=O)Nc1ccc(C(=O)CN2CCN(Cc3ccccc3)CC2)cc1` [IV-55, N^1-benzyl-N^4-(4-acetamidophenacyl)piperazine] are 21% and 52%.
With `O=C(CN1CCN(Cc2cccc3ccccc23)CC1)c1ccccc1` [IV-58, N^1-(1-naphthalenylmethyl)-N^4-phenacyl piperazine], in the experiment on Kunming mice [1], the “Analgesia (inhibition ratio of writhing)” value is given as 49%. Moreover, in the experiment on Kunming mice [2], the Sedation worked out at 32%.
Take `O=C(CN1CCN(Cc2ccc3ccccc3c2)CC1)c1ccccc1` [IV-59, N^1-(2-naphthalenylmethyl)-N^4-phenacyl piperazine]: the results for the inhibition in vivo at 20 mg/kg in the experiment on Kunming mice [1] and with Kunming mice [2] were 45% and 0%, respectively.
For the molecule `CC(c1ccc([N+](=O)[O-])cc1)N1CCN(CC(=O)c2ccccc2)CC1` (stereo not shown) [IV-60, N^1-[1-(4-nitrophenyl)ethyl]-N^4-phenacyl piperazine], the values for the inhibition in vivo at 20 mg/kg in the experiment on Kunming mice [1] and in the experiment with Kunming mice [2] were 37% and 66%, respectively.
